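Protocol summary: plate cells (96-well), add compound at 5 concentrations, incubate 48 h, interpolate endpoints linearly. TGI denotes the concentration required for complete inhibition of growth.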
Key:
Test in all cases: inhibition of tumour cell growth, NCI panel, 48 h
[1] = system: EKVX NSCLC
[2] = system: 786-0 renal
[3] = system: HCT-116 colon
[4] = system: IGROV1 ovarian
[5] = system: HOP-92 NSCLC
[6] = system: COLO 205 colon
[7] = system: HOP-62 NSCLC
[8] = system: OVCAR-8 ovarian
[9] = system: NCI-H23 lung
[10] = system: ACHN renal
[11] = system: K-562 leukemia
[12] = system: SN12C renal
[13] = system: M14 melanoma
[14] = system: PC-3 prostate
[15] = system: UACC-257 melanoma
[16] = system: A498 renal
[17] = system: CCRF-CEM leukemia
[18] = system: MDA-MB-231 breast
[19] = system: TK-10 renal
[20] = system: BT-549 breast
[21] = system: SK-MEL-5 melanoma
[22] = system: NCI/ADR-RES ovarian
[23] = system: HCT-15 colon
[24] = system: DU-145 prostate
[25] = system: OVCAR-4 ovarian
[26] = system: SK-MEL-2 melanoma
[27] = system: CAKI-1 renal
[28] = system: HCC-2998 colon
[29] = system: MALME-3M melanoma
[30] = system: SF-295 CNS
[31] = system: NCI-H522 lung
[32] = system: T-47D breast
[33] = system: MOLT-4 leukemia
[34] = system: MDA-MB-435
[35] = system: HS 578T breast
[36] = system: SW-620 colon
[37] = system: SF-539 CNS
[38] = system: SF-268 CNS
[39] = system: UACC-62 melanoma
[40] = system: A549 NSCLC
[41] = system: RPMI-8226 leukemia
[42] = system: NCI-H226 lung
[43] = system: U251 CNS
[44] = system: MCF7 breast
[45] = system: RXF 393 renal
[46] = system: LOX IMVI melanoma
[47] = system: HL-60(TB) leukemia
[48] = system: OVCAR-3 ovarian
[49] = system: SNB-75 CNS
[50] = system: HT29 colon
[51] = system: MDA-N
[52] = system: SK-MEL-28 melanoma
[53] = system: SR leukemia
[54] = system: OVCAR-5 ovarian
[55] = system: SNB-19 CNS
[56] = system: NCI-H460 lung
[57] = system: SK-OV-3 ovarian
[58] = system: KM12 colon

## CNc1cc2oc(=O)cc(C)c2cc1C
[1]
  TGI: > 100 µM
[2]
  TGI: > 100 µM
[3]
  TGI: > 100 µM
[4]
  TGI: > 100 µM
[5]
  TGI: > 100 µM
[6]
  TGI: > 100 µM
[7]
  TGI: > 100 µM
[8]
  TGI: > 100 µM
[9]
  TGI: > 100 µM
[10]
  TGI: > 100 µM
[11]
  TGI: > 100 µM
[12]
  TGI: > 100 µM
[13]
  TGI: > 100 µM
[14]
  TGI: > 100 µM
[15]
  TGI: > 100 µM
[16]
  TGI: > 100 µM
[17]
  TGI: > 100 µM
[18]
  TGI: > 100 µM
[19]
  TGI: > 100 µM
[20]
  TGI: > 100 µM
[21]
  TGI: > 100 µM
[22]
  TGI: > 100 µM
[23]
  TGI: > 100 µM
[24]
  TGI: > 100 µM
[25]
  TGI: > 100 µM
[26]
  TGI: > 100 µM
[27]
  TGI: > 100 µM
[28]
  TGI: > 100 µM
[29]
  TGI: > 100 µM
[30]
  TGI: > 100 µM
[31]
  TGI: > 100 µM
[32]
  TGI: > 100 µM
[33]
  TGI: > 100 µM
[34]
  TGI: > 100 µM
[35]
  TGI: > 100 µM
[36]
  TGI: > 100 µM
[37]
  TGI: > 100 µM
[38]
  TGI: > 100 µM
[39]
  TGI: > 100 µM
[40]
  TGI: > 100 µM
[41]
  TGI: > 100 µM
[42]
  TGI: > 100 µM
[43]
  TGI: > 100 µM
[44]
  TGI: > 100 µM
[45]
  TGI: > 100 µM
[46]
  TGI: > 100 µM
[47]
  TGI: > 100 µM
[48]
  TGI: > 100 µM
[49]
  TGI: > 100 µM
[50]
  TGI: > 100 µM
[51]
  TGI: > 100 µM
[52]
  TGI: > 100 µM
[53]
  TGI: > 100 µM
[54]
  TGI: > 100 µM
[55]
  TGI: > 100 µM
[56]
  TGI: > 100 µM

## COc1cc(Nc2ccc3c(c2)CCC3)nc(OC)n1
[1]
  TGI: > 100 µM
[2]
  TGI: > 100 µM
[3]
  TGI: > 100 µM
[4]
  TGI: > 100 µM
[5]
  TGI: > 100 µM
[6]
  TGI: > 100 µM
[7]
  TGI: > 100 µM
[8]
  TGI: > 100 µM
[9]
  TGI: > 100 µM
[10]
  TGI: 73.7 µM
[12]
  TGI: > 100 µM
[13]
  TGI: > 100 µM
[14]
  TGI: > 100 µM
[15]
  TGI: > 100 µM
[16]
  TGI: > 100 µM
[17]
  TGI: > 100 µM
[18]
  TGI: > 100 µM
[19]
  TGI: > 100 µM
[20]
  TGI: > 100 µM
[21]
  TGI: 62.3 µM
[22]
  TGI: 65.5 µM
[23]
  TGI: > 100 µM
[24]
  TGI: > 100 µM
[25]
  TGI: > 100 µM
[26]
  TGI: > 100 µM
[27]
  TGI: > 100 µM
[28]
  TGI: 61.6 µM
[29]
  TGI: > 100 µM
[30]
  TGI: > 100 µM
[31]
  TGI: 84.5 µM
[32]
  TGI: > 100 µM
[34]
  TGI: > 100 µM
[35]
  TGI: 42.6 µM
[36]
  TGI: > 100 µM
[57]
  TGI: > 100 µM
[37]
  TGI: > 100 µM
[38]
  TGI: > 100 µM
[39]
  TGI: > 100 µM
[40]
  TGI: > 100 µM
[41]
  TGI: 40.9 µM
[42]
  TGI: > 100 µM
[43]
  TGI: > 100 µM
[58]
  TGI: 91.9 µM
[44]
  TGI: > 100 µM
[46]
  TGI: > 100 µM
[47]
  TGI: > 100 µM
[48]
  TGI: > 100 µM
[49]
  TGI: 53.5 µM
[50]
  TGI: 51.4 µM
[51]
  TGI: > 100 µM
[52]
  TGI: > 100 µM
[53]
  TGI: 77.8 µM
[54]
  TGI: > 100 µM
[55]
  TGI: > 100 µM
[56]
  TGI: > 100 µM
